Source: US20140350273A1, “PEDIATRIC USES OF CABAZITAXEL” (AVENTIS PHARMA S.A., priority 2012, published 2014)
Like-named read-outs stand apart in the source and are kept apart here.

Test system: human osteosarcoma DM77
Assay type: in vivo
Settings: for Tumor Volume Data (Day 21) Median / ΔT/ΔC % / ΔT/ΔC: day 21; for MTTE / T-C: volume endpoint 1400 mm^3
Experimental: In the reported examples supporting this invention, vials of the clinical formulation of cabazitaxel and docetaxel were used. […] The resultant solution contains 10 mg/mL of cabazitaxel. Stock solution of cabazitaxel was then diluted in 0.9% sodium chloride.
This efficacy may be quantified, for example, as changes in tumor volume for each treated (T) and control (C) group, which are calculated for each animal and each day by subtracting the tumor volume on the day of first treatment (staging day) from the tumor volume on the specified observation day. This allows calculating the tumor growth inhibition: ΔT/ΔC=(median delta T/median delta C)×100. Individual tumor volume changes from baseline are thereafter analyzed by a non-parametric two-way ANOVA-TYPE (with factors: group and repeated days) followed by a post-hoc contrasts analysis, with Bonferroni-Holm adjustment for multiplicity, comparing all treated groups to the control group. […] A probability less than 5% (p<0.05) was considered as significant.
Based on the National Cancer Institute (NCl) standards, a ΔT/ΔC≦40% is the minimal level required to declare activity.
This efficacy may also be quantified by the number of tumor regressions observed after therapy. Individual mice reporting a tumor volume ≦50% of the Day 0 measurement for two consecutive measurements over a seven day period were considered partial responders (PR). Individual mice lacking palpable tumors (<4×4 mm^2 for two consecutive measurements over a seven day period) were classified as complete responders (CR); a CR that persisted until study completion was considered a tumor-free survivor (TFS).
Efficacy could also be determined at study completion, using tumor growth delay (T-C) in days, which is calculated using the median time to endpoint (MTTE) value for each treatment (T) group versus control (C). A Log Rank multiple comparison test with Bonferroni-Holm adjustment for multiplicity was applied on individual TTE to compare the treated groups to the control group.
The efficacy of cabazitaxel in comparison with docetaxel on pediatric patient-derived tumor xenografts was determined experimentally in the following manner:
The animals subjected to the experiment are subcutaneously grafted unilaterally with approximately 30 mg of a tumor fragment from low passage pediatric patient-derived tumor xenografts. The animals are implanted with a human patient-derived pediatric tumor xenografted in immuno-compromised mice (Harlan; nu/nu). Several days post tumor implantation, mice are randomized according to their tumor burden to the different groups of treatments and controls. The agents are dosed intravenously at 5.8, 9.3, 15 or 24.2 mg/kg every 4 days for a total of 3 doses (q4d×3) to mice bearing a tumor burden at start of therapy (day 0) ranged from 125 to 250 mm^3.
Beginning Day 0, animals were observed daily and weighed twice weekly using a digital scale; data including individual and mean gram weights (Mean We±SD), mean percent weight change versus Day 0 were recorded for each group. Animal deaths were recorded daily and designated as drug-related (D), technical (T), tumor related (B), or unknown (U) based on weight loss and gross observation; single agent or combination groups reporting a mean >20% for a period of 7 days and/or >10% mortality were considered above the maximum tolerated dose (MTD) for that treatment on the evaluated regimen.
The selected tumor model, DM77, was a low passage patient-derived tumor xenograft derived from an osteosarcoma taken from the lung of a patient. […]

## CO[C@H]1C(=O)[C@]2(C)[C@@H](OC)C[C@H]3OC[C@@]3(OC(C)=O)[C@H]2[C@H](OC(=O)c2ccccc2)[C@]2(O)C[C@H](OC(=O)[C@H](O)[C@@H](NC(=O)OC(C)(C)C)c3ccccc3)C(C)=C1C2(C)C [Cabazitaxel, 4α-acetoxy-2α-benzoyloxy-5β,20-epoxy-1β-hydroxy-7β,10β-dimethoxy-9-oxo-11-taxen-13α-yl (2R,3S)-3-tert-butoxycarbonyl-amino-2-hydroxy-3-phenylpropionate]
5.8 mg/kg i.v./q4dx3
  #CR: 0/0/0
  #PR: 0/0/0
  #TFS: 0/0/0
  Drug Deaths Total: 0
  Weight Change at Nadir %: −5%
  Weight Change at Nadir Day: 11 days
  Tumor Volume Data (Day 21) Median: 333 mm^3
  ΔT/ΔC %: 14.1%
  MTTE: 49 days
  T-C: 24 days
5.8 mg/kg q4d×3 IV
  ΔT/ΔC: 14.1%
5.8 mg/kg, DAY 4
  tumor volume changes from baseline, Median +/− nMAD: 47 +/− 47
5.8 mg/kg, DAY 7
  tumor volume changes from baseline, Median +/− nMAD: 121 +/− 80
5.8 mg/kg, DAY 11
  tumor volume changes from baseline, Median +/− nMAD: 162 +/− 89
5.8 mg/kg, DAY 14
  tumor volume changes from baseline, Median +/− nMAD: 162 +/− 97
5.8 mg/kg, DAY 18
  tumor volume changes from baseline, Median +/− nMAD: 195 +/− 122
5.8 mg/kg, DAY 21
  tumor volume changes from baseline, Median +/− nMAD: 129 +/− 129
5.8 mg/kg, DAY 25
  tumor volume changes from baseline, Median +/− nMAD: 96 +/− 115
5.8 mg/kg, DAY 28
  tumor volume changes from baseline, Median +/− nMAD: 96 +/− 115
5.8 mg/kg, DAY 32
  tumor volume changes from baseline, Median +/− nMAD: 96 +/− 109
5.8 mg/kg, DAY 35
  tumor volume changes from baseline, Median +/− nMAD: 169 +/− 182
5.8 mg/kg, DAY 39
  tumor volume changes from baseline, Median +/− nMAD: 239 +/− 172.5
5.8 mg/kg, DAY 42
  tumor volume changes from baseline, Median +/− nMAD: 240 +/− 162
5.8 mg/kg, DAY 46
  tumor volume changes from baseline, Median +/− nMAD: 364.5 +/− 226
5.8 mg/kg, DAY 49
  tumor volume changes from baseline, Median +/− nMAD: 402 +/− 254
5.8 mg/kg, DAY 53
  tumor volume changes from baseline, Median +/− nMAD: 706 +/− 516
5.8 mg/kg, DAY 56
  tumor volume changes from baseline, Median +/− nMAD: 878 +/− 602.5
9.3 mg/kg i.v./q4dx3
  #CR: 0
  #PR: 2
  #TFS: 0
  Drug Deaths Total: 0
  Weight Change at Nadir %: −8%
  Weight Change at Nadir Day: 11 days
  Tumor Volume Data (Day 21) Median: 131 mm^3
  ΔT/ΔC %: 0%
  MTTE: >60 days
  T-C: >35 days
9.3 mg/kg q4d×3 IV
  numbers of PR: 2/9
  ΔT/ΔC: 0%
9.3 mg/kg, DAY 4
  tumor volume changes from baseline, Median +/− nMAD: 54 +/− 54
9.3 mg/kg, DAY 7
  tumor volume changes from baseline, Median +/− nMAD: 73 +/− 73
9.3 mg/kg, DAY 11
  tumor volume changes from baseline, Median +/− nMAD: 19 +/− 35
9.3 mg/kg, DAY 14
  tumor volume changes from baseline, Median +/− nMAD: 19 +/− 35
9.3 mg/kg, DAY 18
  tumor volume changes from baseline, Median +/− nMAD: 0 +/− 33
9.3 mg/kg, DAY 21
  tumor volume changes from baseline, Median +/− nMAD: 0 +/− 34
9.3 mg/kg, DAY 25
  tumor volume changes from baseline, Median +/− nMAD: −19 +/− 26
9.3 mg/kg, DAY 28
  tumor volume changes from baseline, Median +/− nMAD: −45 +/− 26
9.3 mg/kg, DAY 32
  tumor volume changes from baseline, Median +/− nMAD: −45 +/− 26
9.3 mg/kg, DAY 35
  tumor volume changes from baseline, Median +/− nMAD: −66 +/− 7
9.3 mg/kg, DAY 39
  tumor volume changes from baseline, Median +/− nMAD: −66 +/− 7
9.3 mg/kg, DAY 42
  tumor volume changes from baseline, Median +/− nMAD: −66 +/− 7
9.3 mg/kg, DAY 46
  tumor volume changes from baseline, Median +/− nMAD: −66 +/− 7
9.3 mg/kg, DAY 49
  tumor volume changes from baseline, Median +/− nMAD: −66 +/− 7
9.3 mg/kg, DAY 53
  tumor volume changes from baseline, Median +/− nMAD: −47 +/− 25
9.3 mg/kg, DAY 56
  tumor volume changes from baseline, Median +/− nMAD: −47 +/− 26
15 mg/kg i.v./q4dx3
  #CR: 0
  #PR: 6
  #TFS: 0
  Drug Deaths Total: 0
  Weight Change at Nadir %: −9%
  Weight Change at Nadir Day: 11 days
  Tumor Volume Data (Day 21) Median: 78 mm^3
  ΔT/ΔC %: −9.3%
  MTTE: >60 days
  T-C: >35 days
15 mg/kg, DAY 4
  tumor volume changes from baseline, Median +/− nMAD: 0 +/− 0 (n = 9)
15 mg/kg, DAY 7
  tumor volume changes from baseline, Median +/− nMAD: 0 +/− 25
15 mg/kg, DAY 11
  tumor volume changes from baseline, Median +/− nMAD: −53 +/− 19
15 mg/kg, DAY 14
  tumor volume changes from baseline, Median +/− nMAD: −53 +/− 27
15 mg/kg, DAY 18
  tumor volume changes from baseline, Median +/− nMAD: −73 +/− 20
15 mg/kg, DAY 21
  tumor volume changes from baseline, Median +/− nMAD: −85 +/− 13
15 mg/kg, DAY 25
  tumor volume changes from baseline, Median +/− nMAD: −85 +/− 13
15 mg/kg, DAY 28
  tumor volume changes from baseline, Median +/− nMAD: −85 +/− 13
15 mg/kg, DAY 32
  tumor volume changes from baseline, Median +/− nMAD: −85 +/− 19
15 mg/kg, DAY 35
  tumor volume changes from baseline, Median +/− nMAD: −85 +/− 19
15 mg/kg, DAY 39
  tumor volume changes from baseline, Median +/− nMAD: −85 +/− 38
15 mg/kg, DAY 42
  tumor volume changes from baseline, Median +/− nMAD: −85 +/− 38
15 mg/kg, DAY 46
  tumor volume changes from baseline, Median +/− nMAD: −85 +/− 38
15 mg/kg, DAY 49
  tumor volume changes from baseline, Median +/− nMAD: −85 +/− 38
15 mg/kg, DAY 53
  tumor volume changes from baseline, Median +/− nMAD: −85 +/− 38
15 mg/kg, DAY 56
  tumor volume changes from baseline, Median +/− nMAD: −85 +/− 38
24.2 mg/kg i.v./q4dx3
  #CR: 1
  #PR: 5
  #TFS: 1
  Drug Deaths Total: 0
  Weight Change at Nadir %: −15%
  Weight Change at Nadir Day: 14 days
  Tumor Volume Data (Day 21) Median: 101.5 mm^3
  ΔT/ΔC %: −6.9%
  MTTE: >60 days
  T-C: >35 days
24.2 mg/kg, DAY 4
  tumor volume changes from baseline, Median +/− nMAD: 22 +/− 22
24.2 mg/kg, DAY 7
  tumor volume changes from baseline, Median +/− nMAD: 0 +/− 9.5
24.2 mg/kg, DAY 11
  tumor volume changes from baseline, Median +/− nMAD: −26.5
24.2 mg/kg, DAY 14
  tumor volume changes from baseline, Median +/− nMAD: −29.5
24.2 mg/kg, DAY 18
  tumor volume changes from baseline, Median +/− nMAD: −61.5 +/− 27
24.2 mg/kg, DAY 21
  tumor volume changes from baseline, Median +/− nMAD: −63 +/− 25.5
24.2 mg/kg, DAY 25
  tumor volume changes from baseline, Median +/− nMAD: −69.5
24.2 mg/kg, DAY 28
  tumor volume changes from baseline, Median +/− nMAD: −60 +/− 28.5
24.2 mg/kg, DAY 32
  tumor volume changes from baseline, Median +/− nMAD: −60 +/− 28.5
24.2 mg/kg, DAY 35
  tumor volume changes from baseline, Median +/− nMAD: −60 +/− 35
24.2 mg/kg, DAY 39
  tumor volume changes from baseline, Median +/− nMAD: −60 +/− 35
24.2 mg/kg, DAY 42
  tumor volume changes from baseline, Median +/− nMAD: −71 +/− 46.5
24.2 mg/kg, DAY 46
  tumor volume changes from baseline, Median +/− nMAD: −71 +/− 46.5
24.2 mg/kg, DAY 49
  tumor volume changes from baseline, Median +/− nMAD: −71 +/− 43
24.2 mg/kg, DAY 53
  tumor volume changes from baseline, Median +/− nMAD: −64.5 +/− 45.5
24.2 mg/kg, DAY 56
  tumor volume changes from baseline, Median +/− nMAD: −64.5 +/− 46.5
Conclusion of example 4, dose equivalent basis
  antitumor activity compared with docetaxel: more efficacious than docetaxel at both mid doses
